These results are taken from US20070027216A1, “NOVEL HYDROCHLORIDE SALTS OF LEVODOPA” (priority 2005, published 2007).

Broadly, the solubility is the concentration that dissolves in the medium under given conditions.

Series [1] in a line: Aqueous solubility. It counts as physicochemical. As to conditions: water, 25 °C; at about 25 degrees C. The method, then: To a slurry containing levodopa (15.1 g, 0.0766 mol) in acetonitrile (750 ml) was added concentrated hydrochloric acid (7.0 mL, 0.0781 mol) dropwise with stirring. Addition of hydrochloric acid to the slurry caused it to form a clear solution followed by precipitation of levodopa hydrochloride. The solid material was collected by filtration and dried under a flow of nitrogen overnight. The solid was characterized using PXRD (Bruker), DSC, TGA and Raman spectroscopy.

The nature of series [2]: In vitro dissolution of fast-dissolve tablets in SGF (simulated gastric fluid). Type of series: physicochemical. As to conditions: 50 rpm, FIG. 5; for time to realize >90% dissolved: about 400 mg tablet, target 100 mg levodopa, lactose filler, 200 mL SGF pH 2.0, 37 degrees C., average of N=2, normalized by final concentration. Here is the method:
A dissolution study for a levodopa fast-dissolve tablet feasibility study was completed. All tablets were about 400 mg total weight and contained a target of 100 mg levodopa in four forms: levodopa free base, levodopa hydrochloride salt (from Example 1), levodopa free base jet milled (5-10 micrometers), and levodopa free base jet milled granulated with HPC-L solution. The filler for the tablet was Pharmatose DCL 14 (lactose). The dissolution was carried out in 200 mL of SGF (simulated gastric fluid) at 37 degrees C. using an overhead mixer at a speed of 50 rpm. […] In the above described dissolution study, the SGF was prepared using the following preparation: Dissolved 4 grams sodium chloride and 2 grams Triton X-100 in 2000 mL HPLC grade water. Added 1 N hydrochloric acid to the solution until the pH reached 2.0.

The conditions of series [3]: temperature not given; cited from earlier work.

In the case of `Cl.NC(Cc1ccc(O)c(O)c1)C(=O)O` (single isomer, unassigned; (-)) [levodopa hydrochloride salt, (−)-2-amino-3-(3,4-dihydroxyphenyl)propanoic acid hydrochloride], the solubility in series [1] was in the range of 11 to 16 mg/mL. Besides, the “time to realize >90% dissolved” value in series [2] is around 10 min.
As to `N[C@@H](Cc1ccc(O)c(O)c1)C(=O)O` [levodopa free base, (−)-2-amino-3-(3,4-dihydroxyphenyl)propanoic acid], the “time to realize >90% dissolved” value in series [2] is on record as “about 20 minutes”. The “time to >90% dissolved, free base versus hydrochloride salt” value in series [2] (same tablets, 200 mL SGF, 37 degrees C.) is listed as “about twice as long”. For the same compound, the “aqueous solubility of the free base” value in series [3] is listed as “about 1.65 mg/mL”.
